Source: patent US11434198B2, “Compounds and methods for the treatment of neurodegenerative diseases” (Resilio Therapeutics, LLC, priority 2016, dated 2022)

Assay: pH stability of prodrugs of DFMO in PBS buffer
Type: physicochemical
Settings: for intact prodrug lost over the next 24 hours: 24 hours following the initial phase; for decrease in the amount of intact, non-degraded prodrug over the first hour of incubation: LC/MS/MS
Procedure: The stability of prodrugs of DFMO to different pH conditions over time was assayed. Prodrugs were reconstituted in dimethylsulfoxide (DMSO), diluted into phosphate buffered saline (PBS) of different pH values, incubated for different lengths of time at room temperature, and then analyzed by LC/MS/MS for changes in the levels of each prodrug. […] Following this initial phase, the (2)-prodrug was reasonably stable over the next 24 hours so that less than 20% of the intact prodrug was lost at pH 3 and 5, and about 60% of the intact material was lost at pH 8 over a day. […] Similar results were obtained with the other prodrugs tested.

Structure (SMILES): CC(OC(=O)NCCCC(N)(C(=O)O)C(F)F)OC(=O)C(C)C (stereo not shown) [(2)-prodrug, 2-amino-2-(difluoromethyl)-5-[1-(2-methylpropanoyloxy)ethoxycarbonylamino]pentanoic acid]
- stability of intact, non-degraded prodrug over time at different pH (in words) (PBS of different pH values, room temperature): slowly lost
- intact prodrug lost over the next 24 hours (PBS pH 3, room temperature): less than 20%
- decrease in the amount of intact, non-degraded prodrug over the first hour of incubation (PBS pH 3, room temperature): about 60%
- intact prodrug lost over the next 24 hours (PBS pH 5, room temperature): less than 20%
- decrease in the amount of intact, non-degraded prodrug over the first hour of incubation (PBS pH 5, room temperature): 30-35%
- intact prodrug lost over the next 24 hours (PBS pH 8, room temperature): about 60%
- decrease in the amount of intact, non-degraded prodrug over the first hour of incubation (PBS pH 8, room temperature): 30-35%
